Reference: US7470794B2, “Preparation and use of ortho-sulfonamido aryl hydroxamic acids as matrix metalloproteinase inhibitors” (Wyeth, priority 2000, dated 2008)
Read-outs that look alike come from different tables or passages of the source.

Assays:
[1] = target: MMP-13 (Homo sapiens, UniProt P45452); assay: MMP-13 inhibition (thiopeptide or fluorescent peptide substrate assay); format: biochemical
Description: (§1) These assays are based on the cleavage of a thiopeptide substrates such as Ac-Pro-Leu-Gly(2-mercapto-4-methyl-pentanoyl)-Leu-Gly-OEt by the matrix metalloproteinases MMP-1, MMP-13 (collagenases) or MMP-9 (gelatinase), which results in the release of a substrate product that reacts colorimetrically with DTNB (5,5′-dithiobis(2-nitro-benzoic acid)). The enzyme activity is measured by the rate of the color increase. The thiopeptide substrate is made up fresh as a 20 mM stock in 100% DMSO and the DTNB is dissolved in 100% DMSO as a 100 mM stock and stored in the dark at room temperature. Both the substrate and DTNB are diluted together to 1 mM with substrate buffer (50 mM HEPES pH 7.5, 5 mM CaCl2) before use. The stock of enzyme is diluted with assay buffer (50 mM HEPES, pH 7.5, 5 mM CaCl2, 0.02% Brij) to the desired final concentration. The assay buffer, enzyme, vehicle or inhibitor, and DTNB/substrate are added in this order to a 96 well plate (total reaction volume of 200 μl) and the increase in color is monitored spectrophotometrically for 5 minutes at 405 nm on a plate reader and the increase in color over time is plotted as a linear line.
(§2) Alternatively, a fluorescent peptide substrate is used. In this assay, the peptide substrate contains a fluorescent group and a quenching group. Upon cleavage of the substrate by an MMP, the fluorescence that is generated is quantitated on the fluorescence plate reader. The assay is run in HCBC assay buffer (50 mM HEPES, pH 7.0, 5 mM Ca^+2, 0.02% Brij, 0.5% Cysteine), with human recombinant MMP-1, MMP-9, or MMP-13. The substrate is dissolved in methanol and stored frozen in 1 mM aliquots. For the assay, substrate and enzymes are diluted in HCBC buffer to the desired concentrations. Compounds are added to the 96 well plate containing enzyme and the reaction is started by the addition of substrate. The reaction is read (excitation 340 nm, emission 444 nm) for 10 min. and the increase in fluorescence over time is plotted as a linear line.
(§3) For either the thiopeptide or fluorescent peptide assays, the slope of the line is calculated and represents the reaction rate. The linearity of the reaction rate is confirmed (r^2>0.85). The mean (x±sem) of the control rate is calculated and compared for statistical significance (p<0.05) with drug-treated rates using Dunnett's multiple comparison test. Dose-response relationships can be generated using multiple doses of drug and IC50 values with 95% CI are estimated using linear regression.

[2] = target: T1, tumor necrosis factor-alpa converting enzyme (TACE; Immunex) (Homo sapiens, UniProt P78536); assay: TACE inhibition (fluorescent peptidyl substrate assay); format: biochemical; settings: 1 μM test compound
T1 construct: purchased Immunex
T1 sequence (P78536 215-824): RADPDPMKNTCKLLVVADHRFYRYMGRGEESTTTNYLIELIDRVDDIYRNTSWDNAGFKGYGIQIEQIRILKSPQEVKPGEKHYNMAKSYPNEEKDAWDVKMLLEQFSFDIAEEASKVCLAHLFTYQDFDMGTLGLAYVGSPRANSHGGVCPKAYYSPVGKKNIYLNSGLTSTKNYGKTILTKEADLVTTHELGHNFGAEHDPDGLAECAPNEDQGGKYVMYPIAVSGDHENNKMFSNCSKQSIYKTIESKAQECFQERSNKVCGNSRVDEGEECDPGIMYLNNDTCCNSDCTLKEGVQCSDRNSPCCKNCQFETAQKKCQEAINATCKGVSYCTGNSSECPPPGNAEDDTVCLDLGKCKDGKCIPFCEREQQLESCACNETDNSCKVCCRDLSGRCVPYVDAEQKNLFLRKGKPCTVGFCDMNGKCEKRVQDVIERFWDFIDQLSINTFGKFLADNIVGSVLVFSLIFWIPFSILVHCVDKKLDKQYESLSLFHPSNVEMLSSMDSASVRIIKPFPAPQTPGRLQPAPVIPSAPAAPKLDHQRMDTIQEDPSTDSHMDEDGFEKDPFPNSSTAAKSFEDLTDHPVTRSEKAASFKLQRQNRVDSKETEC
Description: Using 96-well black microtiter plates, each well receives a solution composed of 10 μL tumor necrosis factor-alpa converting enzyme (TACE; Immunex, final concentration 1 μg/mL), 70 μL Tris buffer, pH 7.4 containing 10% glycerol (final concentration 10 mM), and 10 μL of test compound solution in DMSO (final concentration 1 μM, DMSO concentration <1%) and incubated for 10 minutes at room temperature. The reaction is initiated by addition of a fluorescent peptidyl substrate (final concentration 100 μM) to each well and then shaking on a shaker for 5 sec.
The reaction is read (excitation 340 nm, emission 420 nm) for 10 min. and the increase in fluorescence over time is plotted as a linear line. The slope of the line is calculated and represents the reaction rate.
as §3, with “The” for “For either the thiopeptide or fluorescent peptide assays, the slope of the line is calculated and represents the reaction rate. The”, “generate” for “generated”

[3] = target: MMP-9 (Homo sapiens, UniProt P14780); assay: MMP-9 inhibition (thiopeptide or fluorescent peptide substrate assay); format: biochemical
Sequence of MMP-9 (P14780 94-707): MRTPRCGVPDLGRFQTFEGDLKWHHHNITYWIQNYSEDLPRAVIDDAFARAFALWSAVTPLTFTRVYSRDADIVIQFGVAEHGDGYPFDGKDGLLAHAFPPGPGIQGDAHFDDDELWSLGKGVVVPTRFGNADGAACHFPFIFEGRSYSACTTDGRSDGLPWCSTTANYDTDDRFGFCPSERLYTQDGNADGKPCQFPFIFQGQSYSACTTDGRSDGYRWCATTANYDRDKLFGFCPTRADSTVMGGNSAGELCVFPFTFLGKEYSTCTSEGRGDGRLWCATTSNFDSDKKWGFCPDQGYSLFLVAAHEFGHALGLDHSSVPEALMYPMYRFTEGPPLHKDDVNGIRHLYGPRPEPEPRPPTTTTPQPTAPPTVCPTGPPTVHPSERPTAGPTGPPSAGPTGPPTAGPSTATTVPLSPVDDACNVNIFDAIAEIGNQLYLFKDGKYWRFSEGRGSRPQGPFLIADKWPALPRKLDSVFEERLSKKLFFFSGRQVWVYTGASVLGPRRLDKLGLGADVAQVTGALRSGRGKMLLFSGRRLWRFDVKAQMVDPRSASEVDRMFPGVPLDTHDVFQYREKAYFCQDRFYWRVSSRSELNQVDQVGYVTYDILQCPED
Description: as §1, §2, §3

[4] = target: T2, MMP-1 (Homo sapiens, UniProt P03956); assay: MMP-1 inhibition (thiopeptide or fluorescent peptide substrate assay); format: biochemical
T2 sequence (P03956 100-469): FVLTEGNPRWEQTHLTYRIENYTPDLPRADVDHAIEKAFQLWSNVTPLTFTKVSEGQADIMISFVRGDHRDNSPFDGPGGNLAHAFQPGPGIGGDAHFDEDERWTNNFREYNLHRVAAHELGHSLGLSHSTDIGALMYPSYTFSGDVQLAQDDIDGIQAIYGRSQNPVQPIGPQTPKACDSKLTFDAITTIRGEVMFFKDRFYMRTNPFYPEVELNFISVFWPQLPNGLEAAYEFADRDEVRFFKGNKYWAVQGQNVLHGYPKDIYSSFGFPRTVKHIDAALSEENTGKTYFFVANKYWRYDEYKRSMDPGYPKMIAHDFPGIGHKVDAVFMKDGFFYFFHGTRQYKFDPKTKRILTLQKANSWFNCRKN
Description: as §1, §2, §3

Row | Molecule | IC50 [1] [nM] | IC50 [3] [nM] | melting point [°C] | IC50 [4] [µM] | IC50 ([4]; cells printed in μM) [µM] | inhibition at 1 µM [2] [%] | TACE % inhibition @ 1 μM [2] [%]
1 | Cc1cccc(C(=O)NO)c1N(C)S(=O)(=O)c1ccc(OCCNC(=O)c2ccc3ccccc3n2)cc1 [Example 4, Quinoline-2-carboxylic acid(2-{4-[(2-hydroxycarbamoyl-6-methyl-phenyl)-methyl-sulfamoyl]-phenoxy}-ethyl)-amide] | 73 | 337 | 114 to 121 | 4.24 |  | 19.9 | 
2 | Cc1cccc(C(=O)NO)c1N(C)S(=O)(=O)c1ccc(OCCCNC(=O)c2cc3ccccc3o2)cc1 [Example 6, Benzofuran-2-carboxylic acid(3-{4-[(2-hydroxycarbamoyl-6-methyl-phenyl)-methyl-sulfamoyl]-phenoxy}-propyl)-amide] | 4.9 | 510 | 148 to 150 | 5.45 |  | 21.3 | 
3 | Cc1cccc(C(=O)NO)c1N(C)S(=O)(=O)c1ccc(OCCCCNC(=O)c2cc3ccccc3o2)cc1 [Example 8, Benzofuran-2-carboxylic acid(4-{4-[(2-hydroxycarbamoyl-6-methyl-phenyl)-methyl-sulfamoyl]-phenoxy}-butyl)-amide] | 467 | 84 | 131 to 134 | 5.12 |  | 43.6 | 
4 | Cc1cccc(C(=O)NO)c1N(C)S(=O)(=O)c1ccc(OCCCNC(=O)c2cc3ccccc3[nH]2)cc1 [Example 10, 1H-Indole-2-carboxylic acid(3-{4-[(2-hydroxycarbamoyl-6-methyl-phenyl)-methyl-sulfamoyl]-phenoxy}-propyl)-amide] | 178 | 305 | 144 to 146 | 5.64 |  | 35.7 | 
5 | Cc1cccc(C(=O)NO)c1N(C)S(=O)(=O)c1ccc(OCCNC(=O)c2cc3ccccc3s2)cc1 [Example 12, Benzo[b]thiophene-2-carboxylic acid(2-{4-[(2-hydroxycarbamoyl-6-methyl-phenyl)-methyl-sulfamoyl]-phenoxy}-ethyl)-amide] | 595 | 914 | 169 to 171 |  | > 10 | 15.2 | 
6 | N-{4-[4-({2-[(hydroxyamino)carbonyl]-6, N-dimethylanilino}sulfonyl)phenoxy]butyl}-1,3-benzodioxole-5-carboxamide [Example 16] | 83.5 | 55.7 |  | 0.999 |  |  | 27.4

Second part, led by results:

Row | IC50 [1] [nM] | IC50 [3] [nM] | melting point [°C] | IC50 [4] [µM] | IC50 ([4]; cells printed in μM) [µM] | Molecule | inhibition at 1 µM [2] [%] | TACE % inhibition @ 1 μM [2] [%]
7 | 110 | 63.6 | 102 to 112 | 1.48 |  | Cc1cccc(C(=O)NO)c1N(C)S(=O)(=O)c1ccc(OCCCNC(=O)c2ccc3c(c2)OCO3)cc1 [Example 14, N-{3-[4-({2-[(hydroxyamino)carbonyl]-6, N-dimethylanilino}sulfonyl)phenoxy]propyl}-1,3-benzodioxole-5-carboxamide] | 42.1 | 
8 | 43 | 1390 | 100 to 105 |  | 30 | Cc1cccc(C(=O)NO)c1N(C)S(=O)(=O)c1ccc(OCCCNC(=O)c2cc3ccccc3s2)cc1 [Example 27, N-{3-[4-({2-[(Hydroxyamino)carbonyl]-6-dimethylanilino}-sulfonyl)phenoxy]propyl}-1-benzothiophene-2-carboxamide] | 22 | 
9 | 17.1 |  |  |  |  | Cc1cc(C)c(N(Cc2ccccc2)S(=O)(=O)c2ccc(OCCNC(=O)c3cc4ccccc4o3)cc2)c(C(=O)NO)c1 [Example 31, Benzofuran-2-carboxylic acid(2-{4-[benzyl-(2-hydroxycarbamoyl-4,6-dimethyl-phenyl)-sulfamoyl]-phenoxy}-ethyl)-amide] | 18.9 | 
